Earlier results in US20240268416A1, “ANIMAL FEED ADDITIVE COMPOSITIONS AND METHODS OF USE” (PMI Nutrition, LLC, priority 2023, published 2024).

Tested on: C. elegans
Details: C. elegans assay

urolithins
concentration needed to obtain a positive effect on muscle function: 50 µM | concentration required to trigger the muscle function response: 11.4 µg/mL
